# In patent publication US5677326A, “Indoline compound and 5-HT3 receptor antagonist containing the same as active ingredient” (Tokyo Tanabe Company Limited, priority 1993, dated 1997):
# Tests used:
# [1] = tested on: stress-related diarrhea; settings: animal models; J. Pharmacol. Exp. Ther. 261, 297 (1992); cited from earlier work
# [2] = tested on: gastric emptying; assay: Accelerating effect on gastric emptying (cisplatin-reduced); format: in vivo, SD rats; settings: oral, 30 min before cisplatin 10 mg/kg
# Procedure: Accelerating effect on gastric emptying
# Seven-week-old male SD rats which had been fasted for 24 hours were used. The effect on gastric emptying was studied in rats with reduced gastric emptying due to cisplatin. The rats were intragastrically administered the test feed (1.5% aqueous CMC solution containing 50 mg/100 ml phenol red) at 1.5 ml/rat, and after 15 minutes the stomachs were dissected, the residual amount of phenol red in the stomach was measured, in order to determine the gastric emptying in normal animals. A cisplatin-induced reduction in gastric emptying was measured by intraabdominal administration of cisplatin (10 mg/kg) 30 minutes prior to supplying the test feed. The test compound was also administered orally 30 minutes prior to the cisplatin administration to study the accelerating effect of the test compound on gastric emptying.
# [3] = tested on: 5-HT3 receptors in the upper intestine; assay: Antagonism against 5-HT-induced intestinal secretion (jejunal loop); format: in vivo, wister rats; settings: caudal vein, 15 min before serotonin
# Procedure: Antagonism against 5-HT-induced intestinal secretion:
# Male wister rats (8-11 weeks old) were anesthetized with urethane, and the abdomen was opened a polyethylene catheter was placed in the jejunum 5 cm distal to the duodenojejunal flexure and fixed by ligation. The second ligation was made at a distal point of 20 cm to create a jejunal loop. Two ml of physiological saline was injected into this loop and initiated continuous injection of physiological saline (0.1 ml/min) or 5-HT (3 μg/0.1 ml/kg/min, serotonin treated group) into the mesenteric artery through the mesenteric artery gastric branch, and after 30 minutes the jejunal loop was isolated, the residual fluid amount was measured, and the net fluid transfer per gram of tissue weight was calculated. The net fluid transfer was expressed as the fluid amount (weight) change in 30 minutes per jejunal tissue weight (g/30 min/g). A "+" was assigned when the fluid amount increased compared with 2 ml of physiological saline injected into the loop, and "-" when it decreased
# [4] = tested on: restraint stress-induced diarrhea; assay: Inhibiting effect on restraint stress-induced diarrhea (intraabdominal administration); format: in vivo, Wistar rats; settings: 30 μg/kg, 30 min before stress
# Procedure: Inhibiting effect on restraint stress-induced diarrhea (intraabdominal administration): This test was conducted in the same manner as Test 3. Nine- to ten-week-oldmale Wistar rats fasted overnight were placed in a stress case and their feces produced in 5 hours were observed. Of 15 rats, 14 developed diarrhea. The inhibiting effect on diarrhea was measured by intraabdominal administration of a test compound 30 minutes prior to placement in the stress cage.
# [5] = target: T1, 5-HT3 receptors in the heart (Rattus norvegicus, UniProt P35563); assay: Antagonism against Von Bezold-Jarisch reflex (BJ reflex); format: in vivo, SD rats; settings: iv, 5 min before serotonin 30 μg/kg, read-out: ID50 (the source's name)
# T1 construct: from tissue; host or cells: living anesthetized male SD rats (in vivo)
# T1 sequence (P35563 24-483): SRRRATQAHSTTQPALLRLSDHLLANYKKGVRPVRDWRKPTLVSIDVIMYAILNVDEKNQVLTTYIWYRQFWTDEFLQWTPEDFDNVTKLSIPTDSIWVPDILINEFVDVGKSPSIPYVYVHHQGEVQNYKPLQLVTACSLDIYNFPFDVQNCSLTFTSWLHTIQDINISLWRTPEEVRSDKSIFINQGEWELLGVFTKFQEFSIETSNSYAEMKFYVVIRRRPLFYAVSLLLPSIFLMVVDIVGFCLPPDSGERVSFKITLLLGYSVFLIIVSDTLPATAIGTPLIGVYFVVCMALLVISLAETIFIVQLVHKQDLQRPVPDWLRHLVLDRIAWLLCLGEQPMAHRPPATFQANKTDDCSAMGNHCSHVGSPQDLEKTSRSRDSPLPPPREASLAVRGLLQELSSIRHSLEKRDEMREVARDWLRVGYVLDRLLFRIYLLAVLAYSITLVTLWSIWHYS
# Procedure: Antagonism against Von Bezold-Jarisch reflex (BJ reflex):
# The pulse was determined by measuring the electrocardiogram R waves (secondary induction) with an instantaneous pulse rate meter.
# [6] = tested on: duodenal extension reflex; assay: Inhibiting effect on duodenal extension reflex; format: in vivo, Wistar rats; settings: intravenous
# Text: Inhibiting effect on duodenal extension reflex: Unfasted male Wistar rats with a body weight of 300-390 g were opened at the abdomen under urethane anesthesia, and ligated at 2 locations, the gastric pyloric region and 3-4 cm directly under it, to create a duodenal loop. […] The beaker was raised at once to create a internal loop pressure of 75 cm H2, and the depressor reflex and effect of the test agent administration were observed. […] The test agent was then administrated intravenously, and at 5, 15 and 25 minutes after administration an extension stimulus was applied, the depressor reflex was observed, and the differences were expressed as percentages with respect to the initial value, to give the inhibition rates.
# [7] = tested on: vomiting; settings: The Japanese Journal of Pharmacology 57, 387-395 (1991); cited from earlier work
# [8] = tested on: restrained stress-induced diarrhea; assay: Inhibiting effect on restrained stress-induced diarrhea (oral administration); format: in vivo, Wistar rats; settings: 1 hour before stress
# Procedure: Inhibiting effect on restrained stress-induced diarrhea (oral administration): This test was conducted following the method of Miyata, et al. […] Nine-week-old male Wistar rats fasted overnight were placed in a stress cage and their feces produced in 5 hours were observed. Of 15 rats, 14 developed diarrhea. The inhibiting effect on diarrhea was measured by oral administration of the test compounds one hour prior to placement in the stress cage.
# [9] = target: T2, Intestinal 5-HT3 receptor (Cavia porcellus, UniProt O70212); assay: Intestinal 5-HT3 receptor antagonism (isolated distal colon, 2-methylserotonin-induced contraction); format: cell-based, Hartley guinea pigs; settings: M (molar concentration of antagonist), isolated distal colon, 2-methylserotonin contraction
# T2 sequence (O70212 24-490 limits assumed): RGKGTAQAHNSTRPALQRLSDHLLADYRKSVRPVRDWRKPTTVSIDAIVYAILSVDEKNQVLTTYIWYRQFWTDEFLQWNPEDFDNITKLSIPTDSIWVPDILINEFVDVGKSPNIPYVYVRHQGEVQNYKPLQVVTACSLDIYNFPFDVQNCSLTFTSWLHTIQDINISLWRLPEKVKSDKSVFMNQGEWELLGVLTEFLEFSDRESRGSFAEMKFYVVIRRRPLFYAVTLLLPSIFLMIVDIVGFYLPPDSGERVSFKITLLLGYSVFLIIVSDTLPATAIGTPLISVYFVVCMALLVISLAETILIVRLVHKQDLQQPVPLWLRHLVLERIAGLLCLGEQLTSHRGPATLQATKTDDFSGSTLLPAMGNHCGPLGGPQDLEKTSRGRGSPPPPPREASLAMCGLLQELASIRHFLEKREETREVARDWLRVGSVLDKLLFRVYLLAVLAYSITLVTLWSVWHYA
# Procedure: The test was conducted following the method of Miyata, et al. (The Journal of Pharmacology and Experimental Therapeutics Vol.259, No:1, 15 (1991)).
# Male Hartley guinea pigs with a body weight of 300-400 g were bled to death, the distal colon (3-10 cm from the anus) was isolated and suspended in a Magnus tube filled with Krebs solution aerated with a mixed gas (95% O2, 5% CO2), and subjected to a tensile load of 1 g. After constant contraction by cumulative addition of 2-methylserotonin (10^-6 -10^-4 M) was obtained, the test agent was added and the pA2 value of the test agent was calculated based on its inhibiting action on the initial value.
# The value (pA2 value) is defined as the negative logarithm (-logM) of the molar concentration (M) of the antagonist required to reduce the effect of serotonin at a concentration of 2 times the 2-methylserotonin concentration (EC50) necessary to induce half of the maximum contraction reaction, to an effect induced by an EC50 of serotonin.
# [10] = tested on: cisplatin-induced vomiting; assay: Inhibiting effect on cisplatin-induced vomiting; format: in vivo, ferrets; settings: oral, 1 hour before cisplatin; for No. of retching / No. of vomiting animals/No. of animals used / No. of vomitings: 6 hours
# Text: Inhibiting effect on cisplatin-induced vomiting:
# Vomiting was induced in ferrets by administration of cisplatin. The inhibiting effect on this vomiting was observed. […] The test agents were orally administered one hour prior to cisplatin administration. […]
smiles,measurement,setting,value
"Cl.Cn1cc(C(=O)[C@@H]2CCc3nc[nH]c3C2)c2ccccc21 [YM-060, (R)-(-)-5-[(1-methylindol-3-yl)carbonyl]-4,5,6,7-tetrahydrobenzimidazole hydrochloride, reference compound]",suppression of stress-related diarrhea (in words),[1],"suppress stress-related diarrhea in animal models, with the effect of YM-060 being the strongest"
same,Gastric evacuation,[2]; 0.3 μg/kg,51.8%
same,Gastric evacuation,[2]; 1.0 μg/kg,74.2%
same,net fluid transfer in jejunal loop,[3]; 1.0 μg/kg,-0.49 ± 0.06 g/30 min/g tissue weight
same,net fluid transfer in jejunal loop,[3]; 10 μg/kg,-0.74 ± 0.09 g/30 min/g tissue weight
same,Inhibition rate,[4],50%
same,No. of animals with diarrhea/No. of animals used,[4],7/14
same,ED50,[5],8.6e-05 µmol/kg
same,"Inhibition rate, 5-min value",[6]; 1 μg/kg,-27.9%
same,"Inhibition rate, 15-min value",[6]; 1 μg/kg,-30.8%
same,"Inhibition rate, 25-min value",[6]; 1 μg/kg,-14.8%
same,"Inhibition rate, 5-min value",[6]; 10 μg/kg,16.3%
same,"Inhibition rate, 15-min value",[6]; 10 μg/kg,6.3%
same,"Inhibition rate, 25-min value",[6]; 10 μg/kg,7.9%
same,antiemetic effect (in words),[7],powerful antiemetic effect
same,Inhibition rate,[8]; 30 μg/kg,60%
same,No. of animals with diarrhea/No. of animals used,[8]; 30 μg/kg,4/10
same,Inhibition rate,[8]; 100 μg/kg,75%
same,No. of animals with diarrhea/No. of animals used,[8]; 100 μg/kg,2/8
same,Kb,[9],4.5 nM
same,Latency* (time to initial retching),[10]; 0.3 μg,127.0 min
same,Latency** (time to initial vomiting),[10]; 0.3 μg,134.0 min
same,No. of retching,[10]; 0.3 μg,126.0
same,No. of vomiting animals/No. of animals used,[10]; 0.3 μg,2/2
same,No. of vomitings,[10]; 0.3 μg,6.5
same,Latency* (time to initial retching),[10]; 1.0 μg,> 272.2 min
same,Latency** (time to initial vomiting),[10]; 1.0 μg,> 303.0 min
same,No. of retching,[10]; 1.0 μg,41.6
same,No. of vomiting animals/No. of animals used,[10]; 1.0 μg,3/5
same,No. of vomitings,[10]; 1.0 μg,1.2
